Where two headings read alike, the source gives them in different places. Positions of bridges follow the written chain, without caps; N, C: chain ends. Non-standard residues stand in square brackets, D forms with d. Residues, ends and D or L forms follow the SMILES beside them. No end group written: not given here. R8 = C=CCCCCCC[C@@](C)(N)C(=O)O; S5 = C=CCCC[C@](C)(N)C(=O)O
Tests used:
[1] = system: GBM tumors; test: In vivo tumor growth, daily subcutaneous injections of SAH-EJ1; parameters: species or system mice; settings: 10 mg/kg daily subcutaneous, vs control mouse
Excerpt: (§1) EGFR is amplified or mutated in more than 40% of glioblastoma multiforme (GBM) tumors. Referring to FIG. 13-14, inhibitor peptides of the present invention were used to treat GBM cells and tumors.

[2] = biological target: Ecyl EGFR peptide; test: ITC binding experiments
[3] = system: patient-derived glioma lines (BT145, BT147, GB16, GB7, GB42); test: Viability of patient-derived GBM cells; type: cell-based
Excerpt: FIG. 13A and FIG. 13B show treatment of patient-derived GBM cells with various EGFR inhibitor peptides.
as §1

[4] = system: CaMKII; test: CaMKII phosphorylation, immunoblot in MDA-MB-468 cells; type: cell-based; settings: MDA-MB-468, EGF or ionomycin, 15 minutes
Description: (a) MDA-MB-468 cells were treated with either 20 μmol/l CP (A-D) or 20 μmol/l EJ1 (E-H) for 0 minutes (A, E), 15 minutes (B, F), 60 minutes (C, G), or 16 hours (D, H). […] (b) BxPC3 cells were serum starved overnight, then treated with 20 μmol/l EJ1 and 50 ng/ml Texas-Red-labeled EGF, and imaged for 30 minutes with an Olympus IX71 deconvolution microscope. Panels A-F are bright field images, D′-F′ are red channel images (Texas-Red-labeled EGF). […] (c) Diagram depicts Ca^2+/CaM-regulated signaling pathway, and inhibitors acting at different targets are indicated. (d) MDA-MB-468 cells were pretreated with 50 μmol/l W-13 (D-F), 10 μmol/l ML-7 (G-I), or 10 μmol/l Y-27632 (J-L) in complete medium at 37° C. for 30 minutes and then treated with vehicle, 20 μmol/l CP, or 20 μmol/l EJ1 in combination with W-13, ML-7, or Y-27632 in complete medium at 37° C. for 15 minutes. Images represent the bright field images. […] Error bars, mean±SD. (f) MDA-MB-468 cells were either in serum-free medium (SF) or stimulated with 100 ng/ml EGF (EGF) and then incubated with water (Vehicle), 20 μmol/l CP, 20 μmol/l EJ1, 2 μmol/l ionomycin, 50 μmol/l W-13, 100 μmol/l KN-93, or EJ1 in combination with ionomycin for 15 minutes. Lysates were immunoblotted with antibodies as indicated. […] Error bars, mean±SD. […]

[5] = system: SKOV3 cells; test: MTT killing of erbB2 positive ovarian cancer cells, one hour treatment; type: cell-based
Description: The erbB2 positive ovarian cancer cell line, SKOV3 was treated with SAH5-EJ1 for one hour with concentrations between 10 uM and 40 uM.

[6] = Peptide solubility; type: physicochemical
Description: The EJ peptides were synthesized by GenScript (Scotch Plains, N.J.), delivered lyophilized, and stored at −20° C. Peptides were resuspended as needed at 1 mmol/1 in water and stored for up to 2 weeks at 4° C. EJ1 peptide sequences are shown conjugated to the PTD4 domain ([…] (SEQ ID NO: 110)) in FIG. 6c.

[7] = system: MDA-MB-468 cells; settings: MDA-MB-468, 20 uM peptide, 3 days (FIG. 1)
Description: Inhibitor peptides were evaluated on their ability to inhibit growth of triple-negative breast cancer cells MDA-MB-468 (20 uM peptide treatment). […] SEQ ID NO: 13 is […] SEQ ID NO: 14 is […] SEQ ID NO: 15 is […] SEQ ID NO: 16 is […] SEQ ID NO: 17 is […] SEQ ID NO: 18 is […] SEQ ID NO: 19 is […] SEQ ID NO: 20 is […] SEQ ID NO: 21 is […] SEQ ID NO: 22 is […] SEQ ID NO: 23 is […] SEQ ID NO: 24 is […] SEQ ID NO: 25 is […]
(§2) Peptide designations are indicated in the right column. Changes from EJ1 in EJ2-11 are denoted in the second column from the right. (d-j) Cell lines were treated daily with 20 μmol/l EJ1, 20 μmol/l CP, or vehicle (water) for 3 days unless otherwise noted, and cell viability was determined by the MTT assay. Growth rates for vehicle-treated cells were set to 100%, and CP and EJ1 rates were adjusted accordingly. *P<0.05, **P<0.01, ***P<0.001 (Student's t-test). Error bars, mean±SD. (From Hart et al., 2013, Molecular Therapy 21(11):1996-2007, the disclosure of which is incorporated herein in its entirety.)
To do this, we created cell-penetrating peptides to act as dominant-negative “decoys,” thereby inhibiting endogenous jxm interactions. Peptides specific for jxm subdomains were synthesized downstream of the protein transduction domain-4 (PTD4; FIG. 6). Next, the effect of peptide treatment on cell viability was analyzed on the breast cancer cell line MDA-MB-468 by MTT (3-[4,5-dimethylthiazol-2-yl]-2,5-diphenyl tetra-zolium bromide) analysis after 3 days of treatment.
(§3) Protein lysate preparation, immunoprecipitation, and western blotting were performed as described previously. For cross-linking, cells were first incubated according to manufacturer instructions with 3 μmol/l DMS, a membrane-permeable, noncleavable, cross-linking agent (Thermo Scientific, Waltham, Mass.). Cells were analyzed both by the MTT assay following manufacturer's instructions (Sigma) and using a U-Quant Spectrophotometer (Bio-TEK Instruments, Winooski, Vt.).

[8] = system: T47D cells; settings: human, 3 day, 20 μmol/l
Description: as §2, §3

[9] = system: MDA-MB-231 cells; settings: human, 3 day, 20 μmol/l
Description: as §2, §3

[10] = system: MIA PaCa-2 cells; settings: human, 3 day, 20 μmol/l
Description: as §2, §3

[11] = system: AsPC1 cells; settings: human, 3 day, 20 μmol/l
Description: as §2, §3

[12] = system: MMTV-pyMT murine model of breast cancer; test: Tumor growth and lung metastasis in MMTV-pyMT transgenic mice; type: in vivo, mouse; settings: 20 μg/g body weight i.p. daily
Description: (a) MMTV-PyMT mice were allowed to develop tumors of 50 mm^3 before being treated once daily (i.p. injection) with indicated doses of Ctrls (20 μg/g CP5 (n=3), PBS (n=2)) and EJ1 (10 μg/g (n=6), 15 μg/g (n=1), and 20 μg/g (n=7), or twice-daily doses of 40 μg/g (n=3)). Peaks represent average total tumor burden growth rate in mm^3 per day for each treatment. Error bars, mean±SD. *P<0.05; **P<0.005, Student's t-test. (b) Control (12 mice (20 μg/g CP5 (n=5), PBS (n=7), n=100 tumors) vs. 20 μg/g EJ1-treated (eight mice, n=72 tumors) individual tumor growth rates and representative tumor images (insets). Mean denoted by horizontal line. **P<0.005, Student's t-test. (c) Mice were treated with 10, 15, or 20 μg/g body weight EJ1 or control for 21 days and tumors were measured twice weekly. Box plots are shown for day 0 (10 μg/g EJ1: n=6 mice, 21 tumors; 15 μg/g EJ1: n=1 mouse, two tumors; 20 μg/g EJ1: n=8 mice, 24 tumors; Ctrls: n=12 mice, 41 tumors) and final day (10 μg/g EJ1: n=6 mice, 46 tumors; 15 μg/g EJ1: n=1 mouse, nine tumors; 20 μg/g EJ1: n=8 mice, 72 tumors; Ctrls: n=12 mice, 100 tumors). […]
Additionally, many resected EJ1-treated tumors were necrotic in appearance compared with those in controls (FIG. 11b (insets)). […] The MMTV-pyMT transgenic mice present with lung metastasis; we therefore evaluated the effects of EJ1 on lung metastasis. […]

## CC[C@H](C)[C@H](NC(=O)[C@H](Cc1c[nH]cn1)NC(=O)[C@H](CCCNC(=N)N)NC(=O)[C@H](CCCNC(=N)N)NC(=O)[C@H](CCCNC(=N)N)NC(=O)[C@H](CCSC)NC(=O)[C@H](Cc1ccccc1)NC(=O)[C@H](C)NC(=O)[C@H](CCCNC(=N)N)NC(=O)[C@H](C)NC(=O)[C@H](CCC(N)=O)NC(=O)[C@H](CCCNC(=N)N)NC(=O)[C@H](C)NC(=O)[C@H](C)NC(=O)[C@H](C)NC(=O)[C@H](CCCNC(=N)N)NC(=O)[C@H](C)NC(=O)[C@@H](N)Cc1ccc(O)cc1)C(=O)N[C@]1(C)CCCCCCC=CCCC[C@@](C)(C(=O)N[C@@H](CC(C)C)C(=O)N[C@@H](CC(C)C)C(=O)N[C@@H](CCC(N)=O)C(=O)N[C@@H](CCC(=O)O)C(=O)N[C@@H](CCCNC(=N)N)C(=O)N[C@@H](CCC(=O)O)C(=O)O)NC(=O)[C@H](CCCNC(=N)N)NC(=O)[C@H](CC(C)C)NC(=O)[C@H]([C@@H](C)O)NC(=O)[C@H](CCCNC(=N)N)NC(=O)[C@H](CCCCN)NC(=O)[C@H](CCCNC(=N)N)NC1=O [SAH-EJ1] (H-YARAAARQARAFMRRRHI[R8]RKRTLR[S5]LLQERE-OH; staple 19-26; N-terminus and C-terminus assumed)
[1]
  tumor growth in vivo: growth of the tumor is reduced
[1]; listed as stapled EJ
  tumor growth in vivo: decrease tumor growth
[2]; 100 uM and 150 uM experiments, read-out: Kd, average of both experiments
  Kd: ~2.85 µM
[2]; peptide at 100 uM, target at 500 uM, read-out: Kd
  Kd: 2.5 µM
[2]; peptide at 150 uM, target at 500 uM, read-out: Kd
  Kd: 3.2 µM
[3]; BT145 and BT147 (FIG. 13A)
  cell viability of patient-derived glioma lines: decrease in viability
[3]; GB16, GB7, GB42 and BT147, 24 hr treatment (FIG. 13B)
  cell viability of patient-derived glioma lines: decrease in viability

## C[C@H](CCC(=O)O)C[C@H](C)C[C@H](C)C(=O)/C=C(\O)[C@H](C)C[C@H](C)C/C=C/[C@@H](C)[C@@H](O)[C@@H](C)[C@@H](O)C[C@@H]1CC[C@@](C)([C@H]2CC[C@@](C)([C@@H](C)O)O2)O1 [ionomycin]
[4]
  CaMKII phosphorylation: induced CaMKII phosphorylation

## SAH5-EJ1: stapled EJ1: PTD4 domain combined with SEQ ID NO: 103 (YARAAARQARAFMRRRHIVRKR[R8]LRRLLQ[S5]RE; staple 23-30 (inferred))
[5]; SKOV3, one hour of treatment
  concentration inducing optimal cell killing: 5.0 to 10.0 µM
[5]; SKOV3, one hour, 10 uM to 40 uM
  cell killing (MTT): all cells were killed

## YARAAARQARAFMAAAHIVAAATLAALLQERE [EJ8]
[6]
  solubility of peptide: insoluble

## YARAAARQARAFMRRRHIVRKRTLRRLLQERE [EJ1]
[7]
  survival rate of cells after 3 days: 5%
[8]
  reduction of cellular viability: 60%
[9]
  reduction of cellular viability: 10%
[10]
  reduction of cellular viability: 1%
[11]
  reduction of cellular viability: 10%
[12]
  toxicity (weight loss, grooming behavior, gross changes to organs upon necropsy): no toxicity

Reference: patent publication US10066004B2 (ARIZONA CANCER THERAPEUTICS, LLC, priority 2010, dated 2018)
